Laboratory results: patent US12459914B2, “Compounds and compositions for the treatment of tumors” (FONDAZIONE ISTITUTO ITALIANO DI TECNOLOGIA, priority 2019, dated 2025)

Columns and labels:
BxPC-3 cells = test: Cell viability assay (CellTiter Glo); assay type: cell-based; details: Homo sapiens, 72 h
Procedure: BxPC-3 cells were grown in RPMI 1640 containing 10% FBS, 100 U/ml penicillin/streptomycin, 2 mM glutamine. All media and supplements were from Sigma-Aldrich. Cultures were routinely tested for Mycoplasma contamination. Treatments (Olaparib and BRCA2-Rad51 disruptors) were administered in culture medium supplemented with 0.6% DMSO. The same amount of DMSO was added to the control, untreated cultures.
Cell viability was assessed by CellTiter Glo, Luminescent Cell Viability Assay. Briefly, BxPC-3 cells (1×10^4/well) were plated in white 96-well plates with clear bottom and treated for 72 h with olaparib (10 μM) or with the BRCA2-Rad51 disruptors, given alone or in combination. After treatments, the plate was allowed to equilibrate at room temperature for 30 min and the CellTiter-Glo reactive was directly added to each well. The plate was kept on a shaker for 2 min to induce cell lysis and its luminescence was measured by using a Fluoroskan Ascent FL reader (Labsystems) using manufacturer's instructions.

BRC4/RAD51 interaction = target: T1, BRC4/RAD51 interaction (Homo sapiens, UniProt Q06609); test: Competitive ELISA assay, disruption of BRC4/RAD51 interaction; assay type: binding; details: human Rad51, biotinylated BRC4 peptide
T1 construct: purchased Creative Biomart (Rad51); Life Technologies (BRC4 peptide)
T1 sequence (Q06609 1-339): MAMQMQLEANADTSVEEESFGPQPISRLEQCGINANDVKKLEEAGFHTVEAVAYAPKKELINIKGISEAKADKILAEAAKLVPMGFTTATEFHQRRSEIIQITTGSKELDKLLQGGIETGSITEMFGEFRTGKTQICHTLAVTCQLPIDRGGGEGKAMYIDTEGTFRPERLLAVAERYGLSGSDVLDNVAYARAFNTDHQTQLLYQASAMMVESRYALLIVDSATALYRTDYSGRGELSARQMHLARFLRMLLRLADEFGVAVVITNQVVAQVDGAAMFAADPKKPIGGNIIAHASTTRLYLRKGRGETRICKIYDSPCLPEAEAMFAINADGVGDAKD
Procedure: A competitive ELISA screening assay using biotinylated BRC4 peptide to disrupt the BRC4/RAD51 interaction was performed by modifying the method described by Rajendra et al. (Nucleic Acids Res. 38 (2010) 82-96). BRC4-biotinylated peptide (N-term Biotin[…] from Life Technologies) was used to coat 384-well plates (Nunc). After washing with PBS containing 0.05% Tween-20 (PBST), and blocking with the solution BSA 1%/PBST, overnight hybridization with human Rad51 protein (NP_002866 Creative Biomart, NY) was performed. Test compounds were added in dose-response from […] in triplicate with constant DMSO 1%. Antibody raised against Rad51 (Millipore) and HRP-secondary antibody staining to develop the 3,30,5,50-tetramethyllbenzidine signal (Sigma) quenched with 1M HCl was used as the assay readout. Colorimetric measure was read on Victor5 (PerkinElmer) plate Reader. BRC4 and Rad51 were included in the assay as positive control. Results were analyzed using GraphPad Software.

Row | SMILES | EC50 (BxPC-3 cells) [µM] | EC50 (BRC4/RAD51 interaction) [µM]
1 | COc1ccc(-c2ccc(C3CC(c4c(-c5ccccc5)c5cc(Cl)ccc5[nH]c4=O)=NN3C(=O)CCC(=O)O)cc2)cc1 (stereo not drawn) [d.41, 4-[5-(6-chloro-2-oxo-4-phenyl-1H-quinolin-3-yl)-3-[4-(4-methoxyphenyl)phenyl]-3,4-dihydropyrazol-2-yl]-4-oxo-butanoic acid] | 40.6 | 
2 | Cn1ccc2cc(C3CC(c4c(Cc5ccccc5)c5cc(Cl)ccc5[nH]c4=O)=NN3C(=O)CCC(=O)O)ccc21 (stereo not drawn) [d.69, 4-[5-(4-benzyl-6-chloro-2-oxo-1H-quinolin-3-yl)-3-(1-methylindol-5-yl)-3,4-dihydropyrazol-2-yl]-4-oxo-butanoic acid] |  | 10
3 | O=C(O)CCC(=O)N1N=C(c2c(-c3ccccc3)c3cc(Cl)ccc3[nH]c2=O)CC1c1ccc(Cl)cc1 (stereo not drawn) [d.5, 4-[5-(6-chloro-2-oxo-4-phenyl-1H-quinolin-3-yl)-3-(4-chlorophenyl)-3,4-dihydropyrazol-2-yl]-4-oxo-butanoic acid] | > 50 | 
4 | CC(=O)N1N=C(c2c(-c3ccccc3)c3cc(Cl)ccc3[nH]c2=O)CC1c1ccc(C)cc1 (stereo not drawn) [d.49, 3-[2-acetyl-3-(p-tolyl)-3,4-dihydropyrazol-5-yl]-6-chloro-4-phenyl-1H-quinolin-2-one] | 15.2 | 
5 | COc1ccc(-c2ccc(C3CC(c4c(Cc5ccccc5)c5cc(Cl)ccc5[nH]c4=O)=NN3C(C)=O)cc2)cc1 (stereo not drawn) [d.89, 3-[2-acetyl-3-[4-(4-methoxyphenyl)phenyl]-3,4-dihydropyrazol-5-yl]-4-benzyl-6-chloro-1H-quinolin-2-one] |  | 105
6 | CCn1ncc2cc(C3CC(c4c(-c5ccccc5)c5cc(Cl)ccc5[nH]c4=O)=NN3C(C)=O)ccc21 (stereo not drawn) [d.32, 3-[2-acetyl-3-(1-ethylindazol-5-yl)-3,4-dihydropyrazol-5-yl]-6-chloro-4-phenyl-1H-quinolin-2-one] | 27 | 
7 | COc1ccc(C2CC(c3c(CCc4ccccc4)c4cc(Cl)ccc4[nH]c3=O)=NN2C(=O)CCC(=O)O)cc1 (stereo not drawn) [d.105, 4-[5-[6-chloro-2-oxo-4-(2-phenylethyl)-1H-quinolin-3-yl]-3-(4-methoxyphenyl)-3,4-dihydropyrazol-2-yl]-4-oxo-butanoic acid] | 29.6 | 
8 | CC(=O)N1N=C(c2c(-c3ccccc3)c3cc(Cl)ccc3[nH]c2=O)CC1c1ccc(Cl)cc1 (stereo not drawn) [d.6, 3-[2-acetyl-3-(4-chlorophenyl)-3,4-dihydropyrazol-5-yl]-6-chloro-4-phenyl-1H-quinolin-2-one] | 20 | 
9 | CCCn1cc(-c2ccc(C3CC(c4c(-c5ccccc5)c5cc(Cl)ccc5[nH]c4=O)=NN3C(C)=O)cc2)cn1 (stereo not drawn) [d.44, 3-[2-acetyl-3-[4-(1-propylpyrazol-4-yl)phenyl]-3,4-dihydropyrazol-5-yl]-6-chloro-4-phenyl-1H-quinolin-2-one] |  | 46
10 | CCC(=O)N1N=C(c2c(-c3ccccc3)c3cc(Cl)ccc3[nH]c2=O)CC1c1ccc(F)cc1 (stereo not drawn) [d.3, 6-chloro-3-[3-(4-fluorophenyl)-2-propanoyl-3,4-dihydropyrazol-5-yl]-4-phenyl-1H-quinolin-2-one] |  | 34
11 | CCC(=O)N1N=C(c2c(Cc3ccccc3)c3cc(Cl)ccc3[nH]c2=O)CC1c1ccc(F)cc1 (stereo not drawn) [d.54, 4-benzyl-6-chloro-3-[3-(4-fluorophenyl)-2-propanoyl-3,4-dihydropyrazol-5-yl]-1H-quinolin-2-one] |  | 65
12 | CC(=O)N1N=C(c2c(-c3ccccc3)c3cc(Cl)ccc3[nH]c2=O)CC1c1ccc(F)cc1 (stereo not drawn) [d.2, 3-[2-acetyl-3-(4-fluorophenyl)-3,4-dihydropyrazol-5-yl]-6-chloro-4-phenyl-1H-quinolin-2-one] | 37 | 
13 | O=C(O)CCC(=O)N1N=C(c2c(Cc3ccccc3)c3cc(Cl)ccc3[nH]c2=O)CC1c1ccc(-c2ccc(F)cc2)cc1 (stereo not drawn) [d.83, 4-[5-(4-benzyl-6-chloro-2-oxo-1H-quinolin-3-yl)-3-[4-(4-fluorophenyl)phenyl]-3,4-dihydropyrazol-2-yl]-4-oxo-butanoic acid] |  | 12
14 | O=C(O)CCC(=O)N1N=C(c2c(Cc3ccccc3)c3cc(Cl)ccc3[nH]c2=O)CC1c1ccc(Br)cc1 (stereo not drawn) [d.58, 4-[5-(4-benzyl-6-chloro-2-oxo-1H-quinolin-3-yl)-3-(4-bromophenyl)-3,4-dihydropyrazol-2-yl]-4-oxo-butanoic acid] | 23.6 | 
15 | CCn1ncc2cc(-c3ccc(C4CC(c5c(-c6ccccc6)c6cc(Cl)ccc6[nH]c5=O)=NN4C(=O)CCC(=O)O)cc3)ccc21 (stereo not drawn) [d.45, 4-[5-(6-chloro-2-oxo-4-phenyl-1H-quinolin-3-yl)-3-[4-(1-ethylindazol-5-yl)phenyl]-3,4-dihydropyrazol-2-yl]-4-oxo-butanoic acid] |  | 15
16 | CCC(=O)N1N=C(c2c(-c3ccccc3)c3cc(Cl)ccc3[nH]c2=O)CC1c1ccc(Br)cc1 (stereo not drawn) [d.10, 3-[3-(4-bromophenyl)-2-propanoyl-3,4-dihydropyrazol-5-yl]-6-chloro-4-phenyl-1H-quinolin-2-one] |  | 19
17 | Cn1ncc2cc(C3CC(c4c(Cc5ccccc5)c5cc(Cl)ccc5[nH]c4=O)=NN3C(=O)CCC(=O)O)ccc21 (stereo not drawn) [d.73, 4-[5-(4-benzyl-6-chloro-2-oxo-1H-quinolin-3-yl)-3-(1-methylindazol-5-yl)-3,4-dihydropyrazol-2-yl]-4-oxo-butanoic acid] | 81.8 | 
18 | O=C(O)CCC(=O)N1N=C(c2c(-c3ccccc3)c3cc(Cl)ccc3[nH]c2=O)CC1c1ccc(-c2ccc(Br)cc2)cc1 (stereo not drawn) [d.39, 4-[3-[4-(4-bromophenyl)phenyl]-5-(6-chloro-2-oxo-4-phenyl-1H-quinolin-3-yl)-3,4-dihydropyrazol-2-yl]-4-oxo-butanoic acid] | 43 | 
19 | O=C(O)CCC(=O)N1N=C(c2c(-c3ccccc3)c3cc(Cl)ccc3[nH]c2=O)CC1c1ccccn1 (stereo not drawn) [d.99, 4-(3-(6-chloro-2-oxo-4-phenyl-1,2-dihydroquinolin-3-yl)-5-(pyridin-2-yl)-4,5-dihydro-1H-pyrazol-1-yl)-4-oxobutanoic acid] |  | 190
20 | O=C(O)CCC(=O)N1N=C(c2c(Cc3ccccc3)c3cc(Cl)ccc3[nH]c2=O)CC1c1cccnc1 (stereo not drawn) [d.100, 4-[5-(4-benzyl-6-chloro-2-oxo-1H-quinolin-3-yl)-3-(3-pyridyl)-3,4-dihydropyrazol-2-yl]-4-oxo-butanoic acid] |  | 15
21 | CCC(=O)N1N=C(c2c(-c3ccccc3)c3cc(Cl)ccc3[nH]c2=O)CC1c1ccc(Cl)cc1 (stereo not drawn) [d.7, 6-chloro-3-[3-(4-chlorophenyl)-2-propanoyl-3,4-dihydropyrazol-5-yl]-4-phenyl-1H-quinolin-2-one] | 20 | 
22 | COc1ccc(C2CC(c3c(Cc4ccccc4)c4cc(Cl)ccc4[nH]c3=O)=NN2C(C)=O)cc1 (stereo not drawn) [d.52, 3-[2-acetyl-3-(4-methoxyphenyl)-3,4-dihydropyrazol-5-yl]-4-benzyl-6-chloro-1H-quinolin-2-one] | 13.7 | 
23 | COc1ccc(C2CC(c3c(Cc4ccccc4)c4cc(Cl)ccc4[nH]c3=O)=NN2C(=O)CCC(=O)O)cc1 (stereo not drawn) [d.61, 4-[5-(4-benzyl-6-chloro-2-oxo-1H-quinolin-3-yl)-3-(4-methoxyphenyl)-3,4-dihydropyrazol-2-yl]-4-oxo-butanoic acid] |  | > 100
24 | O=C(O)CCC(=O)N1N=C(c2c(Cc3ccccc3)c3cc(Cl)ccc3[nH]c2=O)CC1c1ccc(F)cc1 (stereo not drawn) [d.50, 4-[5-(4-benzyl-6-chloro-2-oxo-1H-quinolin-3-yl)-3-(4-fluorophenyl)-3,4-dihydropyrazol-2-yl]-4-oxo-butanoic acid] | 15.2 | 
